Legend:
Assay type in all cases: biochemical
[1] = target: T1, human MT1-MMP/MMP-14 (catalytic domain) (Homo sapiens, UniProt P50281); assay: Inhibition of MMP-14, fluorescence quenched peptide substrate McaPLGL(Dpa)AR-NH2; conditions: substrate McaPLGL(Dpa)AR-NH2 4 µM; 30 min pre-incubation at room temperature; calculated from IC50; read-out: Ki ± s.d. MMP-14
T1 construct: human MT1-MMP/MMP-14 (catalytic domain); purchased Calbiochem (San Diego, CA, USA)
Experimental: (§1) McaPLGL(Dpa)AR-NH2 was used as a substrate for MMP-9 and MMP-14, while McaRPPGFSAFK(Dnp)-OH was used as substrate for ALN, PLN and TLN. The reaction velocities/initial rates (v) were determined at 37 °C, at an excitation wavelength of 320 nm and an emission wavelength of 405 nm with a slit width of 10 nm using either a Perkin Elmer LS 50 Luminescence spectrometer and the FL WinLab Software Package (Perkin Elmer) or a Clario Star microplate reader (CLARIOstar® BMG LABTECH).
(§2) The test compounds were dissolved in 100% DMSO giving a concentration of 10 mM. A fixed substrate concentration of 4.0 µM in a total volume of 100 µL 0.1 M Hepes pH 7.5, 10 mM CaCl2, 0.005% Brij-35 and 1.0% DMSO, were used in all assays, except for ALN where the substrate concentration was 5.0 µM. The fixed enzyme concentrations were as follows; 0.05 nM MMP-9, 1.0 nM MMP-14, 1.4 nM ALN, 0.5 nM PLN and 0.21 nM TLN. Time-dependent inhibitory experiments without and with 100 μM of testing compounds were performed as follows. Compounds were either pre-incubated with the proteases for 15, 30 and 45 min at room temperature and the enzymatic reaction was started by adding the substrate, or not pre-incubated, i.e., the reaction was started by adding the protease to the mixture of substrate and compound. Control tests without compound present were performed in the same way. The reaction was followed for 30 min at 37 °C.
(§3) Enzymes with and without inhibitor were pre-incubated for 30 min at room temperature, and initial rate assays were performed as described above. Assays were performed using a Clario Star microplate reader (CLARIOstar® BMG LABTECH). The IC50 values were calculated in Graph Pad Prism 5 using Equation (1):(1) vi/v0=1/(1+10^(pIC50−pI)) where vi is the enzyme activity in the presence of inhibitor, v0 the activity in the absence of inhibitor, pI = −log [Inhibitor] in M and pIC50 = −log IC50 in M. All experiments were performed in at least triplicate.

[2] = target: T2, pseudolysin (PLN) (Pseudomonas aeruginosa, UniProt P14756); assay: Inhibition of pseudolysin (PLN), substrate McaRPPGFSAFK(Dnp)-OH
T2 construct: purchased Calbiochem (San Diego, CA, USA)
Experimental: as §1, §2, §3

[3] = target: T3, recombinant human MMP-9 (Homo sapiens, UniProt P14780); assay: Inhibition of MMP-9, fluorescence quenched peptide substrate McaPLGL(Dpa)AR-NH2; conditions: substrate McaPLGL(Dpa)AR-NH2 4 µM; 30 min pre-incubation at room temperature; calculated from IC50; read-out: Ki ± s.d. MMP-9
T3 construct: made in house; host or cells: Sf9 insect cells
Experimental: The expression and purification of recombinant human full-length proMMP-9 (rpMMP-9) from Sf9 insect cells were performed as described previously. The amount of proMMP-9 was estimated spectrophotometrically at 280 nm using ε280 nm = 114.36 mM^−1 cm^−1 [48]. Activation of the recombinant proMMP-9 was performed with APMA (auto-activation) as described previously. The amount of active MMP-9 was determined by active site titration using galardin also described previously.
as §1, §2, §3

T2 sequence (P14756 198-498): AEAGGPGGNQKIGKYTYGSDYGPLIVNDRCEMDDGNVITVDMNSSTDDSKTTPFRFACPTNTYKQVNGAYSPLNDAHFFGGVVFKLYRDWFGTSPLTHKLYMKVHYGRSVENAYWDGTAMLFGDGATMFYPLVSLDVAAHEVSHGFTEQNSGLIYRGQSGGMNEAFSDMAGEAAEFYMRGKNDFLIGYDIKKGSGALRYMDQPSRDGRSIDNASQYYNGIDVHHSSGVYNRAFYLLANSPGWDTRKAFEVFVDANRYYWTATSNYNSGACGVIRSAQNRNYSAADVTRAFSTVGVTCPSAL
T3 sequence (P14780 107-707 limits assumed): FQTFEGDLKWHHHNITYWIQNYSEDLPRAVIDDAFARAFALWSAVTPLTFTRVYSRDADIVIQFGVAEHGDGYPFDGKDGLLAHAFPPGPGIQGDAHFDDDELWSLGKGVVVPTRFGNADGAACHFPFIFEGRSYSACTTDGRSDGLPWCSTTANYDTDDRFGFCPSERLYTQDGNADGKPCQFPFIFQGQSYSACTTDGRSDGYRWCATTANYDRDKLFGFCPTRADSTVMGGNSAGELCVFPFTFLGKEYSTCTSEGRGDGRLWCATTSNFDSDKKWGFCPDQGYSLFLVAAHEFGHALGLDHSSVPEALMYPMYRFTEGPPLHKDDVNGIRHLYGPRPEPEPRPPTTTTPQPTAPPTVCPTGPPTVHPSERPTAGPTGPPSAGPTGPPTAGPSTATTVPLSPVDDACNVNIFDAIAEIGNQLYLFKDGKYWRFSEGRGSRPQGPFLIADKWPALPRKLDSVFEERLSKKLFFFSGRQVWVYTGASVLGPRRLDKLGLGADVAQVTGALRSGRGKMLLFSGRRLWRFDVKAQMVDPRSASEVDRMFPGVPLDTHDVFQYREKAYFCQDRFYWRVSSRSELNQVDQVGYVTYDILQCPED

## c1ccc(CN(Cc2ccccn2)Cc2ccccn2)nc1 [TPA, tri(2-pyridinemethyl)amine, reference compound]
[1]
  Ki: 1.2 ± 0.1 µM
[2]
  Ki: 5 ± 2 µM
[3]
  Ki: 15 ± 4 µM
